Laboratory results: patent US9340590B2 (priority 2011, dated 2016)
Positions of bridges follow the written chain, without caps; N, C: chain ends. Non-standard residues stand in square brackets, D forms with d. Residues, ends and D or L forms follow the SMILES beside them. Phe(4-COOH) = N[C@@H](Cc1ccc(C(=O)O)cc1)C(=O)O; 2Pal = N[C@@H](Cc1ccccn1)C(=O)O; 3Pal = N[C@@H](Cc1cccnc1)C(=O)O

Legend:
hNav1.5 = hNav1.5 (Homo sapiens, UniProt Q14524); assay: cell-based
hNav1.7 = hNav1.7 (Homo sapiens, UniProt Q15858); assay: cell-based; conditions: Nav1.7 Use IC50
hNav1.7, sequence (Q15858 whole entry, looked up): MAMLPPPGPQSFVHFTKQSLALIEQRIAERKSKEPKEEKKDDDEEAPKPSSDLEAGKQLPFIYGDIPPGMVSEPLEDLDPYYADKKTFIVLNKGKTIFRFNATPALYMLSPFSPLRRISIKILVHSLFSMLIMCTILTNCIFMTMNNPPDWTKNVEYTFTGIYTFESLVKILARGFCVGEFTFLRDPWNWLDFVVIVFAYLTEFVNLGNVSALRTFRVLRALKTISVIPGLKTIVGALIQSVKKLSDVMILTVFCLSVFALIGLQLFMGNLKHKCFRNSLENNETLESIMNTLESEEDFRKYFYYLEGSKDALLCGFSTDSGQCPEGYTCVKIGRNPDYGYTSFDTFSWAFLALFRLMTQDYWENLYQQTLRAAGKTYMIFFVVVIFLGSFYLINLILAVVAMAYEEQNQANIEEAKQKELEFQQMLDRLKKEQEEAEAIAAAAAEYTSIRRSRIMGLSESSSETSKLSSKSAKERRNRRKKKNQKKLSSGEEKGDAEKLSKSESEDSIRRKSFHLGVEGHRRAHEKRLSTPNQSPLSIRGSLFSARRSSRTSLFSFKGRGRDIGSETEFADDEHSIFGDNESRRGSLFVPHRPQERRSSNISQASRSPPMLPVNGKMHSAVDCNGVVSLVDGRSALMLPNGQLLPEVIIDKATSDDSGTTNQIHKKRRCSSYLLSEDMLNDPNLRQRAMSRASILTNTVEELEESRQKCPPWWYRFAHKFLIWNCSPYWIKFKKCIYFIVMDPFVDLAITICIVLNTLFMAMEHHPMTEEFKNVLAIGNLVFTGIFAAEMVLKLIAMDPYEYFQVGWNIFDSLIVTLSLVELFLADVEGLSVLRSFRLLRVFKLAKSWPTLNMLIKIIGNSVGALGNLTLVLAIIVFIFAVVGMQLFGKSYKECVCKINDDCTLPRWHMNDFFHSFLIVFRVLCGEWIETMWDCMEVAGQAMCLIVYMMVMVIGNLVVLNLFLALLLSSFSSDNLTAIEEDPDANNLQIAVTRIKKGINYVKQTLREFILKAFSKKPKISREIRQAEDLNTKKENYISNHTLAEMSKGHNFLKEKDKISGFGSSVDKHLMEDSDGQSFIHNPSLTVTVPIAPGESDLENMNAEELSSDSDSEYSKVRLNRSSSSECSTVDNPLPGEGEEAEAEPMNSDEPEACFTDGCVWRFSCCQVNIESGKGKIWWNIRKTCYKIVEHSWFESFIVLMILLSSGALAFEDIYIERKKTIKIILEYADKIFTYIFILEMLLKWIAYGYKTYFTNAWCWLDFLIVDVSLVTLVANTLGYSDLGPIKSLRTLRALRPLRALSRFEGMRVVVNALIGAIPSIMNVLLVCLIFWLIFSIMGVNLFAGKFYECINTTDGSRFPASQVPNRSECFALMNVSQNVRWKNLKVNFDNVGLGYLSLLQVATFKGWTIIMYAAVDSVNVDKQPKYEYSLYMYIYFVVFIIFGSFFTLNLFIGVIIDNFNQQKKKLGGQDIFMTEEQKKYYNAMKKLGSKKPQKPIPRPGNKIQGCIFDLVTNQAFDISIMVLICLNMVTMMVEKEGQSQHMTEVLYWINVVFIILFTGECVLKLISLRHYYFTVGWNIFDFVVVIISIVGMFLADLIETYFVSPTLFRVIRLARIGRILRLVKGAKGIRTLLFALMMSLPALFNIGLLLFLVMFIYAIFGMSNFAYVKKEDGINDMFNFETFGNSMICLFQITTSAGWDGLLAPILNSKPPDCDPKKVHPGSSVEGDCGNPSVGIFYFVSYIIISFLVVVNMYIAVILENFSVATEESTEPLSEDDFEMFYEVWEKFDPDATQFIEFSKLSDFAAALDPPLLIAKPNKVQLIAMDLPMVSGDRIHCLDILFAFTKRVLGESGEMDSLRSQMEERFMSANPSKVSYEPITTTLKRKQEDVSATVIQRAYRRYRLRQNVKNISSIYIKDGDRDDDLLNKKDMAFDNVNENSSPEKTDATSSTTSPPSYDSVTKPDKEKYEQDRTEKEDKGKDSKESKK

hNav1.5, sequence (Q14524 whole entry, looked up): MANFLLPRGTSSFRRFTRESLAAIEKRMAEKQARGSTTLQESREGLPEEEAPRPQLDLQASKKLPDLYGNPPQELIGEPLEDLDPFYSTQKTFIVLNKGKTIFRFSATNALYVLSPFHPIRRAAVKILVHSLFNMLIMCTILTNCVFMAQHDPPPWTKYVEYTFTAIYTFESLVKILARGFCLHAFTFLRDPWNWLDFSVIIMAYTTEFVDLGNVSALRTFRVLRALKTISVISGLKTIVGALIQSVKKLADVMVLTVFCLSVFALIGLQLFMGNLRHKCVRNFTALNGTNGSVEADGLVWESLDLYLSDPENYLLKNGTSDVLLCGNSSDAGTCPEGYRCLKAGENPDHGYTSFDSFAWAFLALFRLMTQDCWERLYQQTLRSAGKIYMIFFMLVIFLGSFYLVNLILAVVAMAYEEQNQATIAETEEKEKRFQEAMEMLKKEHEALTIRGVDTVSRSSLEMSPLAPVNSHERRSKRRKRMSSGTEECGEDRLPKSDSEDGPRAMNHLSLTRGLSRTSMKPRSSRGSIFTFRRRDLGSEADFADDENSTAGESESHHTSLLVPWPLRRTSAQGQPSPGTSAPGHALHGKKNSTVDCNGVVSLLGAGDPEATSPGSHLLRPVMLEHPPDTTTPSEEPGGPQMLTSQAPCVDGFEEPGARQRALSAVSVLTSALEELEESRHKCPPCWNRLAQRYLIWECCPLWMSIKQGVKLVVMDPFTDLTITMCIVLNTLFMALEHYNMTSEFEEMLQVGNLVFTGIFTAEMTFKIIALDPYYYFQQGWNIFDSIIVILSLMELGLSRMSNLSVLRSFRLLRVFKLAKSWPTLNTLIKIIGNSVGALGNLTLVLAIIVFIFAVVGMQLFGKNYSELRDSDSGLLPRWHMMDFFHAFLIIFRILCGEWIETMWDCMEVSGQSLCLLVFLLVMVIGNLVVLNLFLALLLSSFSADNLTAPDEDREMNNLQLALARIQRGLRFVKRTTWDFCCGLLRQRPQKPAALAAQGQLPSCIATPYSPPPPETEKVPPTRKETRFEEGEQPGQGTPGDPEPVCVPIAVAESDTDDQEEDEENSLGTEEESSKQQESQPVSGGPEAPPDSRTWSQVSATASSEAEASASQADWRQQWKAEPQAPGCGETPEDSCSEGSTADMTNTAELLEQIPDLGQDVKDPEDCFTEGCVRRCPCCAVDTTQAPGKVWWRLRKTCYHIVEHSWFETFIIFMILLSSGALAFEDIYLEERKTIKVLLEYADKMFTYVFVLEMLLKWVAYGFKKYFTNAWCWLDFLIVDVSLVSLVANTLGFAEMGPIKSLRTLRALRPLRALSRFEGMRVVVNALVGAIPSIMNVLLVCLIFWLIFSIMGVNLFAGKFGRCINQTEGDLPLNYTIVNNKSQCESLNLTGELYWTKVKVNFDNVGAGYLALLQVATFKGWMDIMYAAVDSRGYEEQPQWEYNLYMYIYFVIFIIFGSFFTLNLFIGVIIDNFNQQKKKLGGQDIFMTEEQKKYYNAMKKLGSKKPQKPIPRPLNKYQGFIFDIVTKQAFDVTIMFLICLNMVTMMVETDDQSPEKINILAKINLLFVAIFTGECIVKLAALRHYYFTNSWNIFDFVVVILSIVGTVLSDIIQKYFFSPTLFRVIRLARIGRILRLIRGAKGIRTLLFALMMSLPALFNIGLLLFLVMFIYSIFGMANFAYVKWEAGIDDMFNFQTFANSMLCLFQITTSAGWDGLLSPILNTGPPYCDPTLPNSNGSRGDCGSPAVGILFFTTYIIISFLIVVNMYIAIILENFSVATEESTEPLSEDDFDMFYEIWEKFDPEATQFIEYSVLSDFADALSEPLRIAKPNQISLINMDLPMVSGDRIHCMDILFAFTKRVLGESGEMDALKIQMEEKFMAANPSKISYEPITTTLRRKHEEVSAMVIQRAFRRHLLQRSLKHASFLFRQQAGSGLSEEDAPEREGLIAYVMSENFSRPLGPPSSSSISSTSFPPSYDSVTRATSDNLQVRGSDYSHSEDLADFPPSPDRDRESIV

Row | Compound | IC50 (hNav1.5) | IC50 (hNav1.7)
1 | CC[C@H](C)[C@@H]1NC(=O)[C@@H]2CSSC[C@@H]3NC(=O)[C@H](C(C)C)NC(=O)[C@H](CC(C)C)NC(=O)[C@H](CC(N)=O)NC(=O)[C@@H]4CCCN4C(=O)[C@H](CCCNC(=N)N)NC(=O)[C@H](CSSC[C@H](NC(=O)[C@@H](N)CC(=O)O)C(=O)N[C@@H](CC(C)C)C(=O)NCC(=O)N[C@@H](Cc4ccccc4)C(=O)N[C@@H](CCSC)C(=O)N[C@@H](CCCNC(=N)N)C(=O)N[C@@H](CCCCN)C(=O)N2)NC(=O)[C@H](CSSC[C@@H](C(=O)N[C@@H](CCCCN)C(=O)N[C@@H](Cc2ccccn2)C(=O)N[C@H](C(=O)N[C@@H](Cc2ccccc2)C(N)=O)C(C)C)NC(=O)[C@H](Cc2c[nH]c4ccccc24)NC(=O)[C@H](CCCCN)NC(=O)[C@H](Cc2c[nH]cn2)NC(=O)[C@H]([C@@H](C)O)NC(=O)[C@H](CCCNC(=N)N)NC(=O)[C@H](CO)NC3=O)NC(=O)[C@H](CCCCN)NC(=O)[C@H](CC(=O)O)NC(=O)[C@H](CC(N)=O)NC(=O)[C@H](CC(=O)O)NC(=O)[C@@H]2CCCN2C1=O [[2PAL32]GpTx-1(1-34)] (H-DCLGFMRKCIPDNDKCCRPNLVCSRTHKWCK[2Pal]VF-NH2; disulfide 2-17, 9-23, 16-30) | > 10000 nM | 35 nM
2 | CC[C@H](C)[C@@H]1NC(=O)[C@@H]2CSSC[C@@H]3NC(=O)[C@H](C(C)C)NC(=O)[C@H](CC(C)C)NC(=O)[C@H](CC(N)=O)NC(=O)[C@@H]4CCCN4C(=O)[C@H](CCCNC(=N)N)NC(=O)[C@H](CSSC[C@H](NC(=O)[C@@H](N)CC(=O)O)C(=O)N[C@@H](CC(C)C)C(=O)NCC(=O)N[C@@H](Cc4ccccc4)C(=O)N[C@@H](CCSC)C(=O)N[C@@H](CCCNC(=N)N)C(=O)N[C@@H](CCCCN)C(=O)N2)NC(=O)[C@H](CSSC[C@@H](C(=O)N[C@@H](CCCCN)C(=O)N[C@@H](Cc2ccc(O)cc2)C(=O)N[C@@H](Cc2ccccn2)C(=O)N[C@@H](Cc2ccccc2)C(N)=O)NC(=O)[C@H](Cc2c[nH]c4ccccc24)NC(=O)[C@H](CCCCN)NC(=O)[C@H](Cc2c[nH]cn2)NC(=O)[C@H]([C@@H](C)O)NC(=O)[C@H](CCCNC(=N)N)NC(=O)[C@H](CO)NC3=O)NC(=O)[C@H](CCCCN)NC(=O)[C@H](CC(=O)O)NC(=O)[C@H](CC(N)=O)NC(=O)[C@H](CC(=O)O)NC(=O)[C@@H]2CCCN2C1=O [[2PAL33]GpTx-1(1-34)] (H-DCLGFMRKCIPDNDKCCRPNLVCSRTHKWCKY[2Pal]F-NH2; disulfide 2-17, 9-23, 16-30) | 3460 nM | 10 nM
3 | CC[C@H](C)[C@@H]1NC(=O)[C@@H]2CSSC[C@@H]3NC(=O)[C@H](C(C)C)NC(=O)[C@H](CC(C)C)NC(=O)[C@H](CC(N)=O)NC(=O)[C@@H]4CCCN4C(=O)[C@H](CCCNC(=N)N)NC(=O)[C@H](CSSC[C@H](NC(=O)[C@@H](N)CC(=O)O)C(=O)N[C@@H](CC(C)C)C(=O)NCC(=O)N[C@@H](Cc4cccnc4)C(=O)N[C@@H](Cc4ccccc4)C(=O)N[C@@H](CCCNC(=N)N)C(=O)N[C@@H](CCCCN)C(=O)N2)NC(=O)[C@H](CSSC[C@@H](C(=O)N[C@@H](CCCCN)C(=O)N[C@@H](Cc2ccc(O)cc2)C(=O)N[C@H](C(=O)N[C@@H](Cc2ccccc2)C(N)=O)C(C)C)NC(=O)[C@H](Cc2c[nH]c4ccccc24)NC(=O)[C@H](CCCCN)NC(=O)[C@H](Cc2c[nH]cn2)NC(=O)[C@H]([C@@H](C)O)NC(=O)[C@H](CCCNC(=N)N)NC(=O)[C@H](CO)NC3=O)NC(=O)[C@H](CCCCN)NC(=O)[C@H](CC(=O)O)NC(=O)[C@H](CC(N)=O)NC(=O)[C@H](CC(=O)O)NC(=O)[C@@H]2CCCN2C1=O [[3Pal5;Phe6]GpTx-1(1-34)] (H-DCLG[3Pal]FRKCIPDNDKCCRPNLVCSRTHKWCKYVF-NH2; disulfide 2-17, 9-23, 16-30) | > 10000 nM | 63 nM
4 | CC[C@H](C)[C@@H]1NC(=O)[C@@H]2CSSC[C@@H]3NC(=O)[C@H](C(C)C)NC(=O)[C@H](CC(C)C)NC(=O)[C@H](CC(N)=O)NC(=O)[C@@H]4CCCN4C(=O)[C@H](CCCNC(=N)N)NC(=O)[C@H](CSSC[C@H](NC(=O)[C@@H](N)CC(=O)O)C(=O)N[C@@H](CC(C)C)C(=O)NCC(=O)N[C@@H](Cc4ccccc4)C(=O)N[C@@H](CCSC)C(=O)N[C@@H](CCCNC(=N)N)C(=O)N[C@@H](CCCCN)C(=O)N2)NC(=O)[C@H](CSSC[C@@H](C(=O)N[C@@H](CCCCN)C(=O)N[C@@H](Cc2ccc(O)cc2)C(=O)N[C@H](C(=O)N[C@@H](Cc2ccccc2)C(N)=O)C(C)C)NC(=O)[C@H](Cc2c[nH]c4ccccc24)NC(=O)[C@H](CCCCN)NC(=O)[C@H](Cc2c[nH]cn2)NC(=O)[C@H](Cc2ccc(C(=O)O)cc2)NC(=O)[C@H](CCCNC(=N)N)NC(=O)[C@H](CO)NC3=O)NC(=O)[C@H](CCCCN)NC(=O)[C@H](CC(=O)O)NC(=O)[C@H](CC(N)=O)NC(=O)[C@H](CC(=O)O)NC(=O)[C@@H]2CCCN2C1=O [[4CO2-F26]GpTx-1(1-34)] (H-DCLGFMRKCIPDNDKCCRPNLVCSR[Phe(4-COOH)]HKWCKYVF-NH2; disulfide 2-17, 9-23, 16-30) | > 10000 nM | 65 nM
5 | CC[C@H](C)[C@@H]1NC(=O)[C@@H]2CSSC[C@@H]3NC(=O)[C@H](C(C)C)NC(=O)[C@H](CC(C)C)NC(=O)[C@H](CC(N)=O)NC(=O)[C@@H]4CCCN4C(=O)[C@H](CCCNC(=N)N)NC(=O)[C@H](CSSC[C@H](NC(=O)[C@@H](N)CC(=O)O)C(=O)N[C@@H](CC(C)C)C(=O)NCC(=O)N[C@@H](Cc4ccccc4)C(=O)N[C@@H](CCSC)C(=O)N[C@@H](CCCNC(=N)N)C(=O)N[C@@H](CCCCN)C(=O)N2)NC(=O)[C@H](CSSC[C@@H](C(=O)N[C@@H](CCCCN)C(=O)N[C@@H](Cc2ccc(O)cc2)C(=O)N[C@@H](Cc2ccc(C(=O)O)cc2)C(=O)N[C@@H](Cc2ccccc2)C(N)=O)NC(=O)[C@H](Cc2c[nH]c4ccccc24)NC(=O)[C@H](CCCCN)NC(=O)[C@H](Cc2c[nH]cn2)NC(=O)[C@H]([C@@H](C)O)NC(=O)[C@H](CCCNC(=N)N)NC(=O)[C@H](CO)NC3=O)NC(=O)[C@H](CCCCN)NC(=O)[C@H](CC(=O)O)NC(=O)[C@H](CC(N)=O)NC(=O)[C@H](CC(=O)O)NC(=O)[C@@H]2CCCN2C1=O [[4CO2-F33]GpTx-1(1-34)] (H-DCLGFMRKCIPDNDKCCRPNLVCSRTHKWCKY[Phe(4-COOH)]F-NH2; disulfide 2-17, 9-23, 16-30) | > 10000 nM | 3 nM
6 | CC[C@H](C)[C@@H]1NC(=O)[C@@H]2CSSC[C@@H]3NC(=O)[C@H](C(C)C)NC(=O)[C@H](CC(C)C)NC(=O)[C@H](CC(N)=O)NC(=O)[C@@H]4CCCN4C(=O)[C@H](CCCNC(=N)N)NC(=O)[C@H](CSSC[C@H](NC(=O)[C@@H](N)CC(=O)O)C(=O)N[C@@H](CC(C)C)C(=O)NCC(=O)NC(C)(C)C(=O)N[C@@H](CC(C)C)C(=O)N[C@@H](CCCNC(=N)N)C(=O)N[C@@H](CCCCN)C(=O)N2)NC(=O)[C@H](CSSC[C@@H](C(=O)N[C@@H](CCCCN)C(=O)N[C@@H](Cc2ccc(O)cc2)C(=O)N[C@H](C(=O)N[C@@H](Cc2ccccc2)C(N)=O)C(C)C)NC(=O)[C@H](Cc2c[nH]c4ccccc24)NC(=O)[C@H](CCCCN)NC(=O)[C@H](Cc2c[nH]cn2)NC(=O)[C@H]([C@@H](C)O)NC(=O)[C@H](CCCNC(=N)N)NC(=O)[C@H](CO)NC3=O)NC(=O)[C@H](CCCCN)NC(=O)[C@H](CC(=O)O)NC(=O)[C@H](CC(N)=O)NC(=O)[C@H](CC(=O)O)NC(=O)[C@@H]2CCCN2C1=O [[Aib5;Leu6]GpTx-1(1-34)] | > 10000 nM | 20 nM
